Reference: patent US11945793B1, “9-(2-hydroxypyridin-3-yl)-10[3-(dimethylamino)propyl]-3,4,6,7,9,10-hexahydroacridine-1,8(2H,5H)-dione as an antimicrobial compound” (KING FAISAL UNIVERSITY, priority 2023, dated 2024)

Key:
Assay type in all cases: cell-based
Conditions in all cases: after 10, 20, 40 and 60 minutes at all dilutions 1:100, 1:200, 1:400, 1:800
Staphylococcus aureus = experiment: Antimicrobial screening by agar dilution, St. aureus
Procedure: (§1) The antibacterial properties of the synthesized compound 9-(2-hydroxypyridin-3-yl)-10-[3-(dimethylamino)propyl]-3,4,6,7,9,10-hexahydroacridine-1,8(2H,5H)-dione were studied by the method of agar dilution. Test solutions of each compound was prepared in concentration of 1% using dimethylformamide as a solvent then they are diluted in physiological solution to obtain the final experimental dilutions 1:100, 1:200, 1:400, 1:800. The effect of these substances are compared with furacillin in a controllable study. The testing microbes used were gram positive bacteria Staphylococcus aureus, gram negative bacteria Pseudomonas aeruginosa and Escherichia coli and Candida albicans fungus. The experiments used for this survey were meat-pentonlu agar (EPA) for cultivation of bacteria and Saburo environment for the fungus. Each experiment used 1 mL of test solution on each plate […]. Two drops of emulsified with microbes feel were added. All experimental samples were taken from the agar after 10, 20, 40, 60 minutes in the environment on the basis of Patrk planted. The bacteria were cultivated at a temperature of 37° C. for 1 day and the mushroom was kept in a thermostat for […] at a temperature of 28° C. Then results were checked.

Candida albicans = experiment: Antimicrobial (antifungal) screening by agar dilution, Candida albicans
Procedure: as §1

Escherichia coli = experiment: Antimicrobial screening by agar dilution, E. coli
Procedure: as §1

Pseudomonas aeruginosa = experiment: Antimicrobial screening by agar dilution, Ps. aeruginosa
Procedure: as §1

Measured: inhibition activity (in words)

CN(C)CCCN1C2=C(C(=O)CCC2)C(c2cccnc2O)C2=C1CCCC2=O [9-(2-hydroxypyridin-3-yl)-10-[3-(dimethylamino)propyl]-3,4,6,7,9,10-hexahydroacridine-1,8(2H,5H)-dione]
highest inhibition activity: Staphylococcus aureus | Candida albicans | Escherichia coli | Pseudomonas aeruginosa
